Where two headings read alike, the source gives them in different places.
Assays:
[1] = test system: Mycosphaerella graminicola; anamorph: Septoria tritici; Bayer code SEPTTR; assay: Fungicidal activity: leaf blotch of wheat, greenhouse wheat plants (variety Yuma), percent disease control; assay type: in vivo; details: Zymoseptoria tritici
Protocol: Evaluation of Fungicidal Activity: Leaf Blotch of Wheat (Mycosphaerella graminicola; anamorph: Septoria tritici; Bayer code SEPTTR)
Wheat plants (variety Yuma) were grown from seed in a greenhouse in 50% mineral soil/50% soil-less Metro mix until the first leaf was fully emerged, with 7-10 seedlings per pot. These plants were inoculated with an aqueous spore suspension of Septoria tritici either prior to or after fungicide treatments. After inoculation the plants were kept in 100% relative humidity (one day in a dark dew chamber followed by two to three days in a lighted dew chamber) to permit spores to germinate and infect the leaf. The plants were then transferred to a greenhouse for disease to develop.
The effectiveness of the test compounds in controlling disease was determined by assessing the severity of disease on treated plants, then converting the severity to percent control based on the level of disease on untreated, inoculated plants. • In each case of Table II the rating scale is as follows: […]

[2] = 24 h, read-out: SEPTTR 100 PPM 1DP (% Disease Control rating)
[3] = 72 h, read-out: SEPTTR 100 PPM 3DC (% Disease Control rating)
[4] = 24 h, One-Day Protectant (1DP), 100 ppm, wheat plants, read-out: SEPTTR 100 PPM 1DP (% Disease Control rating)
[5] = 72 h, Three-Day Curative (3DC), 100 ppm, wheat plants, read-out: SEPTTR 100 PPM 3DC (% Disease Control rating)

SMILES | melting point | pest or weed control at 100 ppm [1, 4] [%] | pest or weed control at 100 ppm [1, 5] [%] | also measured
O=c1nc(NCN2CCOCC2)c(F)cn1CN1CCOCC1 [Compound 1, 5-fluoro-1-morpholin-4-ylmethyl-4-[(morpholin-4-ylmethyl)amino]-1H-pyrimidin-2-one] |  |  |  | pest or weed control at 100 ppm [1, 2]: 76 to 100%; pest or weed control at 100 ppm [1, 3]: 76 to 100%
CN1CCN(CNc2nc(=O)n(CN3CCN(C)CC3)cc2F)CC1 [Compound 2, 5-fluoro-1-(4-methylpiperazin-1-ylmethyl)-4-[(4-methylpiperazin-1-ylmethyl)-amino]-1H-pyrimidin-2-one] |  |  |  | pest or weed control at 100 ppm [1, 2]: 76 to 100%; pest or weed control at 100 ppm [1, 3]: 76 to 100%
CN(C)/C=N/c1nc(=O)n(Cc2ccc(F)cc2)cc1F [Compound 4, N′-[5-fluoro-1-(4-fluorobenzyl)-2-oxo-1,2-dihydro-pyrimidin-4-yl]-N,N-dimethylformamidine] |  | 26 to 50 | 0 to 25 | 
CN(C)/C=N/c1nc(=O)n(Cc2ccc(Cl)cc2Cl)cc1F [Compound 5] |  | 0 to 25 | 0 to 25 | 
Cc1ccc(C(=O)Nc2nc(=O)n(C)cc2F)cc1 [Compound 8, N-(5-fluoro-1-methyl-2-oxo-1,2-dihydro-pyrimidin-4-yl)-4-methyl-benzamide] |  | 26 to 50 | 0 to 25 | 
CN(c1nc(=O)n(C)cc1F)S(=O)(=O)Cc1ccccc1 [Compound 9, N-(5-fluoro-1-methyl-2-oxo-1,2-dihydropyrimidin-4-yl)-N-methyl-C-phenylmethanesulfonamide] |  | 26 to 50 | 0 to 25 | 
CC(C)COC(=O)Nc1nc(=O)n(C)cc1F [Compound 10, (5-fluoro-1-methyl-2-oxo-1,2-dihydropyrimidin-4-yl)carbamic acid isobutyl ester] | 126 to 128 °C |  |  | pest or weed control at 100 ppm [1, 2]: 26 to 50%; pest or weed control at 100 ppm [1, 3]: 51 to 75%
CC(C)COC(=O)N(C)c1nc(=O)n(C)cc1F [Compound 11, (5-fluoro-1-methyl-2-oxo-1,2-dihydropyrimidin-4-yl)methylcarbamic acid isobutyl ester] |  |  |  | pest or weed control at 100 ppm [1, 2]: 26 to 50%; pest or weed control at 100 ppm [1, 3]: 0 to 25%
CN(C)/C=N/c1nc(=O)n(COC(=O)C(C)(C)C)cc1F [Compound 12, 2,2-dimethylpropionic acid 4-(dimethylamino-methyleneamino)-5-fluoro-2-oxo-2H-pyrimidin-1-ylmethyl ester] |  | 76 to 100 | 76 to 100 | 
O=c1nc(NCOCc2ccccc2)c(F)cn1COCc1ccccc1 [Compound 15, 1-(benzyloxymethyl)-4-(benzyloxymethylamino)-5-fluoropyrimidin-2(1H)-one] |  | 0 to 25 | 0 to 25 | 
COCCOCn1cc(F)c(N)nc1=O [Compound 16] | 160 to 163 °C | 0 to 25 | 0 to 25 | 
C[Si](C)(C)CCOCn1cc(F)c(N)nc1=O [Compound 17] | 187 to 192 °C | 51 to 75 | 76 to 100 | 
CCCCCCCCOCn1cc(F)c(N)nc1=O [Compound 18] | 166 to 170 °C | 26 to 50 | 51 to 75 | 
CCOC(=O)C(OCC)n1cc(F)c(N)nc1=O (stereo not drawn) [Compound 20] | 150 to 154 °C | 0 to 25 | 0 to 25 | 
Cc1ccc(Cn2cc(F)c(N)nc2=O)cc1 [Compound 25, 4-amino-5-fluoro-1-(4-methylbenzyl)-pyrimidin-2(1H)-one] |  | 0 to 25 | 0 to 25 | 
CCOCn1cc(F)c(NCc2ccccc2F)nc1=O [Compound 37, 1-(ethoxymethyl)-5-fluoro-4-(2-fluorobenzylamino)-pyrimidin-2(1H)-one] |  | 0 to 25 | 0 to 25 | 
Cc1ccc(Cn2cc(F)c(N(C)Cc3ccccc3F)nc2=O)cc1 [Compound 38, 5-fluoro-4-((2-fluorobenzyl)(methyl)amino)-1-(4-methylbenzyl)pyrimidin-2(1H)-one] |  | 0 to 25 | 0 to 25 | 
CCC/C=C/n1cc(F)c(N)nc1=O [Compound 53] | 152.8 to 153.4 °C |  |  | 
Nc1nc(=O)n(CC2CC2)cc1F [Compound 74, 4-amino-1-(cyclopropylmethyl)-5-fluoropyrimidin-2(1H)-one] |  | 76 to 100 | 51 to 75 | 
Nc1nc(=O)n(Cc2cccnc2)cc1F [Compound 75] |  | 26 to 50 | 76 to 100 | 
CCOCCn1cc(F)c(N)nc1=O [Compound 78] | 207.3 to 208.2 °C |  |  | 
CSCn1cc(F)c(N)nc1=O [Compound 79] | 128.5 to 130.6 °C |  |  | 
CCOC(=O)Nc1nc(=O)n(Cc2cccnc2)cc1F [Compound 83] |  | 26 to 50 | 26 to 50 | 
CCOC(=O)Nc1nc(=O)n(CSC)cc1F [Compound 84] | 137.1 to 138.8 °C |  |  | 
CC(=O)Nc1nc(=O)n(CC2CCCO2)cc1F (stereo not drawn) [Compound 95] |  | 0 to 25 | 51 to 75 | 
CC(C)Cn1cc(F)c(NCc2ccccc2F)nc1=O [Compound 105, 5-fluoro-4-(2-fluorobenzylamino)-1-isobutyl-pyrimidin-2(1H)-one] |  |  |  | pest or weed control at 100 ppm [1, 2]: 0 to 25%; pest or weed control at 100 ppm [1, 3]: 26 to 50%
CCNc1nc(=O)n(CC(C)C)cc1F [Compound 107] |  | 0 to 25 | 26 to 50 | 

Second part, led by results:

melting point | SMILES | pest or weed control at 100 ppm [1, 4] [%] | pest or weed control at 100 ppm [1, 5] [%] | also measured
157 to 187 °C (dec.) | CN(C)CNc1nc(=O)n(CN(C)C)cc1F [Compound 3] | 76 to 100 | 76 to 100 | 
186 to 188 °C | CN(C)/C=N/c1nc(=O)n(Cc2ccccc2)cc1F [Compound 6] | 0 to 25 | 0 to 25 | 
178 to 179 °C | Cc1ccc(Cn2cc(F)c(/N=C/N(C)C)nc2=O)cc1 [Compound 7] | 0 to 25 | 0 to 25 | 
109 to 111 °C | CCCC(=O)OCn1cc(F)c(/N=C/N(C)C)nc1=O [Compound 13] | 76 to 100 | 76 to 100 | 
213 to 217 °C | Nc1nc(=O)n(COCc2ccccc2)cc1F [Compound 14, 4-amino-1-(benzyloxymethyl)-5-fluoropyrimidin-2(1H)-one] | 0 to 25 | 0 to 25 | 
240 to 245 °C | Nc1nc(=O)n(COc2ccc(Cl)cc2)cc1F [Compound 19] | 26 to 50 | 0 to 25 | 
233 to 235 °C | Nc1nc(=O)n(-c2ccccc2)cc1F [Compound 42] |  |  | 
230 to 232 °C | COc1ccc(-n2cc(F)c(N)nc2=O)cc1 [Compound 44] |  |  | 
255 to 257 °C | Nc1nc(=O)n(-c2ccc(Cl)cc2)cc1F [Compound 45] |  |  | 
256 to 258 °C | Nc1nc(=O)n(/C=C/c2ccccc2)cc1F [Compound 48] |  |  | 
212 to 214 °C | Nc1nc(=O)n(/C=C/Cc2ccccc2)cc1F [Compound 49] |  |  | 
244.4 to 245.7 °C | CS(=O)(=O)c1ccc(-n2cc(F)c(N)nc2=O)cc1 [Compound 50] |  |  | 
190.6 to 192.7 °C | Nc1nc(=O)n(C2=CCCCC2)cc1F [Compound 51] |  |  | 
211.2 to 213 °C | C=C(c1ccccc1)n1cc(F)c(N)nc1=O [Compound 52] |  |  | 
263.3 to 265.1 °C | COc1ccc(/C=C/n2cc(F)c(N)nc2=O)cc1 [Compound 54] |  |  | 
272.8 to 274.2 °C | Nc1nc(=O)n(-c2ccc3ccccc3c2)cc1F [Compound 55] |  |  | 
173.2 to 174.4 °C | CN(C)/C=N/c1nc(=O)n(C2=CCCCC2)cc1F [Compound 60] |  |  | 
147 to 147.9 °C | C=C(c1ccccc1)n1cc(F)c(/N=C/N(C)C)nc1=O [Compound 61] |  |  | 
144.7 to 146.3 °C | CCC/C=C/n1cc(F)c(/N=C/N(C)C)nc1=O [Compound 62] |  |  | 
264.3 to 265.3 °C | COc1ccc(/C=C/n2cc(F)c(/N=C/N(C)C)nc2=O)cc1 [Compound 63] |  |  | 
222.4 to 224.4 °C | CN(C)/C=N/c1nc(=O)n(-c2ccc3ccccc3c2)cc1F [Compound 64] |  |  | 
231.6 to 233.1 °C | CS(=O)(=O)c1ccc(-n2cc(F)c(NCc3ccccc3F)nc2=O)cc1 [Compound 68] |  |  | 
151.5 to 152.6 °C | O=c1nc(NCc2ccccc2F)c(F)cn1C1=CCCCC1 [Compound 69] |  |  | 
138.9 to 140.2 °C | C=C(c1ccccc1)n1cc(F)c(NCc2ccccc2F)nc1=O [Compound 70] |  |  | 
196.8 to 198.5 °C | COc1ccc(/C=C/n2cc(F)c(NCc3ccccc3F)nc2=O)cc1 [Compound 72] |  |  | 
207.5 to 209 °C | O=c1nc(NCc2ccccc2F)c(F)cn1-c1ccc2ccccc2c1 [Compound 73] |  |  | 
109 to 110.4 °C | CCOCCn1cc(F)c(NC(=O)c2cccs2)nc1=O [Compound 100] |  |  | 
116.8 to 117.8 °C | CCOCCn1cc(F)c(NC(=O)c2ccccc2F)nc1=O [Compound 101] |  |  | 
63 to 65 °C | CCNc1nc(=O)n(CCOCC)cc1F [Compound 108] |  |  | 

From US8916579B2, “5-fluoropyrimidinone derivatives” (Dow AgroSciences, LLC., priority 2009, dated 2014)
